From patent publication US20240090503A1, “FUNGICIDAL OXADIAZOLES AND THEIR MIXTURES” (FMC CORPORATION, priority 2020, published 2024)
Marks after values point to notes of the source that are not given here.

What was measured:
Type in all cases: in vivo
[1] = system: Phakopsora pachyrhizi (the causal agent of Asian soybean rust); test: Test A: preventive spray on soybean seedlings, Asian soybean rust, visual disease rating; conditions: soybean seedlings
Procedure, shortened: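 Preventive test: soybean seedlings received a run-off spray of compound suspended at the set ppm in 50/50 acetone/water plus 250 ppm PEG400, and one day later a P. pachyrhizi spore inoculum. Visual scoring (0 none to 100 full disease control) followed 24 h saturated incubation and 8 days' growth chamber, both at 22° C.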

[2] = system: Zymoseptoria tritici (the causal agent of wheat leaf blotch); test: Test B: preventive spray on wheat seedlings, wheat leaf blotch, visual disease rating; conditions: wheat seedlings
Procedure, shortened: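 This is a preventive test: spray application preceded Zymoseptoria tritici spore inoculation by one day. Test suspensions were in acetone/water with 250 ppm PEG400 surfactant, at the listed ppm rate. After 48 h saturated humidity at 24° C and 17 days at 20° C, visual ratings scored control from 0 to 100%.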

[3] = system: Puccinia recondita f. sp. tritici (the causal agent of wheat leaf rust); test: Test C: preventive spray on wheat seedlings, wheat leaf rust, visual disease rating; conditions: wheat seedlings
Procedure, shortened: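 Wheat seedlings sprayed to run-off with compound in acetone/water (50/50) with 250 ppm PEG400, then inoculated with spores the following day. After 24 h saturated humidity at 20° C. and 6 days in growth chamber at 20° C., disease rated visually as % control relative to untreated controls.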

[4] = 10 ppm test suspension, 100 = 100% disease control, 0 = no control
[5] = 250 ppm test suspension, 100 = 100% disease control
[6] = 50 ppm test suspension, 100 = 100% disease control, 0 = no control
[7] = 250 ppm test suspension, 100 = 100% disease control, 0 = no control

| SMILES | Test A disease control rating [1, 4] | Test B disease control rating [2, 5] | Test C disease control rating [3, 4] | further results |
| --- | --- | --- | --- | --- |
| CCCOC(=O)c1cnn(CCCc2ccc(-c3noc(C(F)(F)F)n3)cc2)c1 [compound 365] |  |  |  | Test A disease control rating ([1]; test suspension 50 ppm): 100%; Test B disease control rating ([2]; test suspension 250 ppm): 80* %; Test C disease control rating ([3]; test suspension 50 ppm): 99% |
| N#Cc1csc(Cc2ccc(-c3noc(C(F)(F)F)n3)cc2)n1 [compound 370] |  |  |  | Test A disease control rating ([1]; test suspension 250 ppm): 100%; Test B disease control rating ([2]; test suspension 250 ppm): 98* %; Test C disease control rating ([3]; test suspension 250 ppm): 100% |
| O=C1CCCN1Cc1ccc(-c2noc(C(F)(F)F)n2)cc1 [compound 371] |  |  |  | Test A disease control rating ([1]; test suspension 250 ppm): 100%; Test B disease control rating ([2]; test suspension 250 ppm): 95* %; Test C disease control rating ([3]; test suspension 250 ppm): 100% |
| O=C1COCCN1Cc1ccc(-c2noc(C(F)(F)F)n2)cc1 [compound 372] |  |  |  | Test A disease control rating ([1]; test suspension 250 ppm): 100%; Test B disease control rating ([2]; test suspension 250 ppm): 99* %; Test C disease control rating ([3]; test suspension 250 ppm): 100% |
| C=CCOC(=O)c1cnn(CCCc2ccc(-c3noc(C(F)(F)F)n3)cc2)c1 [compound 373] |  |  |  | Test A disease control rating ([1]; test suspension 250 ppm): 100%; Test B disease control rating ([2]; test suspension 250 ppm): 99* %; Test C disease control rating ([3]; test suspension 250 ppm): 100% |
| N#CCNC(=O)c1csc(Cc2ccc(-c3noc(C(F)(F)F)n3)cc2)n1 [compound 393] | 100% | 94* % | 100% |  |
| O=C(NC1CCC(F)(F)CC1)c1coc(Cc2ccc(-c3noc(C(F)(F)F)n3)cc2)n1 [compound 395] | 95% | 0* % | 97% |  |
| O=C(NCCn1cccn1)c1csc(Cc2ccc(-c3noc(C(F)(F)F)n3)cc2)n1 [compound 396] | 100% | 28* % | 100% |  |
| O=C(NCCC(F)(F)F)c1csc(Cc2ccc(-c3noc(C(F)(F)F)n3)cc2)n1 [compound 397] | 100% | 82* % | 98% |  |
| O=C(NCCCC(F)(F)F)c1coc(Cc2ccc(-c3noc(C(F)(F)F)n3)cc2)n1 [compound 398] | 100% | 80* % | 97% |  |
| O=C(NCC=C(Cl)Cl)c1coc(Cc2ccc(-c3noc(C(F)(F)F)n3)cc2)n1 [compound 399] | 100% | 10* % | 99% |  |
| CCOC(=O)c1csc(COc2ccc(-c3noc(C(F)(F)F)n3)cc2)n1 [compound 404] | 0% | 0* % | 68% |  |
| O=C(c1ccc(Cc2ccc(-c3noc(C(F)(F)F)n3)cc2)o1)C(F)(F)F [compound 450] | 94% | 41* % | 0% |  |
| FC(F)(F)c1nc(-c2ccc(Cc3ccccc3)cc2)no1 [compound 451] | 99% | 8* % | 0% |  |
| COC(=O)c1cnc(Oc2ccc(-c3noc(C(F)(F)F)n3)cc2)s1 [compound 452] | 81% | 59* % | 0% |  |
| CCOC(=O)c1ccc(Cc2ccc(-c3noc(C(F)(F)F)n3)cc2)cc1 [compound 453] | 92% | 50* % | 0% |  |
| COC(=O)c1coc(Cc2ccc(-c3noc(C(F)(F)F)n3)cc2)c1 [compound 456] | 100% | 65* % | 68% |  |
| CCOC(=O)c1cnn(CN2CCC(c3noc(C(F)(F)F)n3)CC2)c1 [compound 458] |  | 0* % |  | Test A disease control rating [1, 6]: 0%; Test C disease control rating [3, 6]: 0% |
| CCOC(=O)c1cnn(CCN2CCC(c3noc(C(F)(F)F)n3)CC2)c1 [compound 459] |  | 0* % |  | Test A disease control rating [1, 6]: 0%; Test C disease control rating [3, 6]: 0% |
| COCCNC(=O)c1coc(COc2ccc(-c3noc(C(F)(F)F)n3)cc2)n1 [compound 464] | 79% | 94* % | 23% |  |

| SMILES | Test A disease control rating [1, 4] | Test B disease control rating [2, 5] | Test C disease control rating [3, 4] | further results |
| --- | --- | --- | --- | --- |
| O=C(NCC(F)(F)F)c1coc(COc2ccc(-c3noc(C(F)(F)F)n3)cc2)n1 [compound 465] | 100% | 0* % | 80% |  |
| O=C(NCCn1cccn1)c1coc(COc2ccc(-c3noc(C(F)(F)F)n3)cc2)n1 [compound 466] | 100% | 3* % | 55% |  |
| O=C(NCCC(F)(F)F)c1coc(COc2ccc(-c3noc(C(F)(F)F)n3)cc2)n1 [compound 467] | 97% | 6* % | 68% |  |
| N#CCNC(=O)c1coc(COc2ccc(-c3noc(C(F)(F)F)n3)cc2)n1 [compound 468] | 84% | 22* % | 0% |  |
| COCCNC(=O)c1csc(COc2ccc(-c3noc(C(F)(F)F)n3)cc2)n1 [compound 469] | 96% | 65* % | 86% |  |
| O=C(NCC(F)(F)F)c1csc(COc2ccc(-c3noc(C(F)(F)F)n3)cc2)n1 [compound 470] | 100% | 0* % | 94% |  |
| O=C(NCCn1cccn1)c1csc(COc2ccc(-c3noc(C(F)(F)F)n3)cc2)n1 [compound 471] | 77% | 15* % | 80% |  |
| O=C(NCCC(F)(F)F)c1csc(COc2ccc(-c3noc(C(F)(F)F)n3)cc2)n1 [compound 472] | 77% | 22* % | 0% |  |
| N#CCNC(=O)c1csc(COc2ccc(-c3noc(C(F)(F)F)n3)cc2)n1 [compound 473] | 94% | 28* % | 89% |  |
| O=C(c1csc(Cc2ccc(-c3noc(C(F)(F)F)n3)cc2)n1)N1CCOCC1 [compound 487] | 100% |  | 100% | Test B disease control rating ([2]; 100 ppm test suspension (double asterisk), 100 = 100% disease control): 98** % |
| CCNC(=O)c1csc(Cc2ccc(-c3noc(C(F)(F)F)n3)cc2)n1 [compound 488] | 100% | 99* % | 100% |  |
| COCC(COC)NC(=O)c1csc(Cc2ccc(-c3noc(C(F)(F)F)n3)cc2)n1 [compound 489] | 100% | 92* % | 99% |  |
| CON=C(CCl)COC(=O)c1cnn(Cc2ccc(-c3noc(C(F)(F)F)n3)cc2)c1 [compound 494] | 100% | 47* % | 0% |  |
| O=C(CCl)COC(=O)c1cnn(Cc2ccc(-c3noc(C(F)(F)F)n3)cc2)c1 [compound 495] | 100% | 43* % | 0% |  |
| CC1(C)OCC(COC(=O)c2cnn(Cc3ccc(-c4noc(C(F)(F)F)n4)cc3)c2)O1 (stereo not drawn) [compound 496] | 100% | 48* % | 0% |  |
| OC(c1ccc(-c2noc(C(F)(F)F)n2)cc1)c1cccc(F)c1 (stereo not drawn) [compound 498] | 100% | 43* % | 0% |  |
| OC(c1ccc(-c2noc(C(F)(F)F)n2)cc1)c1cccc(Cl)c1 (stereo not drawn) [compound 499] |  | 48* % |  | Test A disease control rating [1, 7]: 100%; Test C disease control rating [3, 7]: 100% |
| OC(c1ccc(F)cc1)c1ccc(-c2noc(C(F)(F)F)n2)cc1 (stereo not drawn) [compound 500] |  | 5* % |  | Test A disease control rating [1, 7]: 100%; Test C disease control rating [3, 7]: 100% |
| CN(C)C(=O)C1=NOC(COc2cccc(-c3noc(C(F)(F)F)n3)c2)C1 (stereo not drawn) [compound 502] |  |  |  | pest or weed control at 250 ppm ([1]; Phakopsora pachyrhizi, 216 h, 250 ppm test suspension, 100 = 100% disease control, 0 = no control): 100%; pest or weed control at 250 ppm ([2]; Zymoseptoria tritici, 456 h, 250 ppm test suspension, 100 = 100% disease control): 62%; pest or weed control at 250 ppm ([3]; Puccinia recondita, 168 h, 250 ppm test suspension, 100 = 100% disease control, 0 = no control): 100% |
